Test results as given in ChEMBL document CHEMBL1201862, “PubChem BioAssay data set” (2004).
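Where inhibition never reached the appropriate level, the endpoint shown equals the highest concentration tested. Otherwise, values were interpolated linearly from a five-concentration, 48-hour dose response in 96-well plates. At the GI50, growth is halved.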 Activity calls are given as the source filed them. Rule as the data show it: active = GI50 up to about 1.1 µM and inactive = higher.

Key:
Assay in all cases: DTP human tumour cell line panel, 48 h
NCI-H522 = system: NCI-H522
786-0 = system: 786-0
NCI-H23 = system: NCI-H23
T47D = system: T47D
HCC 2998 = system: HCC 2998
COLO 205 = system: COLO 205
MDA-MB-231 = system: MDA-MB-231
SW-620 = system: SW-620
SF-295 = system: SF-295
PC-3 = system: PC-3
KM12 = system: KM12
HL-60 = system: HL-60
RPMI-8226 = system: RPMI-8226
NCI-H226 = system: NCI-H226
DU-145 = system: DU-145
M14 = system: M14
HOP-92 = system: HOP-92
SK-MEL-28 = system: SK-MEL-28
OVCAR-4 = system: OVCAR-4
SR = system: SR

Measured: GI50

Nc1c(Br)cc(-c2cc(Br)c(N)c(Br)c2)cc1Br
inactive: NCI-H522 > 100 µM | 786-0 > 100 µM | NCI-H23 > 100 µM | T47D > 100 µM | HCC 2998 > 100 µM | COLO 205 > 100 µM | MDA-MB-231 > 100 µM | SW-620 > 100 µM | SF-295 > 100 µM | PC-3 > 100 µM | KM12 > 100 µM | HL-60 > 100 µM | RPMI-8226 > 100 µM | NCI-H226 > 100 µM | DU-145 > 100 µM | M14 > 100 µM | HOP-92 > 100 µM | SK-MEL-28 > 100 µM | OVCAR-4 > 100 µM | SR > 100 µM

Cc1ccc(S(=O)(=O)N2C3C=CC(C3)[C@@H]2C(Cl)(Cl)Cl)cc1 (stereo not given in full)
inactive: NCI-H522 14 µM | 786-0 10 µM | NCI-H23 27.2 µM | T47D 10.7 µM | HCC 2998 7.31 µM | COLO 205 20.6 µM | MDA-MB-231 12.5 µM | SW-620 20 µM | SF-295 13.6 µM | PC-3 5.06 µM | KM12 20.3 µM | HL-60 1.66 µM | RPMI-8226 3.09 µM | NCI-H226 15 µM | DU-145 10.5 µM | M14 14.4 µM | HOP-92 10.1 µM | SK-MEL-28 18.2 µM | OVCAR-4 15.2 µM | SR 14.4 µM

C[N+](C)(CCNC(=O)c1cccc2cc3ccccc3nc12)Cc1ccc([N+](=O)[O-])cc1
inactive: NCI-H522 > 100 µM | 786-0 > 100 µM | NCI-H23 > 100 µM | T47D > 100 µM | HCC 2998 > 100 µM | COLO 205 > 100 µM | MDA-MB-231 > 100 µM | SW-620 > 100 µM | SF-295 > 100 µM | PC-3 > 100 µM | KM12 > 100 µM | HL-60 > 100 µM | RPMI-8226 > 100 µM | NCI-H226 > 100 µM | DU-145 > 100 µM | M14 > 100 µM | HOP-92 > 100 µM | SK-MEL-28 > 100 µM | OVCAR-4 > 100 µM | SR > 100 µM

Cc1ccc(SCC(OCn2cnc3c(N)ncnc32)[C@H](C)F)cc1 (stereo not given in full)
inactive: NCI-H522 > 100 µM | 786-0 > 100 µM | NCI-H23 > 100 µM | T47D > 100 µM | HCC 2998 > 100 µM | COLO 205 > 100 µM | MDA-MB-231 > 100 µM | SW-620 > 100 µM | SF-295 > 100 µM | PC-3 > 100 µM | KM12 > 100 µM | HL-60 > 100 µM | RPMI-8226 > 100 µM | NCI-H226 > 100 µM | DU-145 > 100 µM | M14 > 100 µM | HOP-92 54.5 µM | SK-MEL-28 > 100 µM | OVCAR-4 > 100 µM | SR > 100 µM

CN(C)c1cc2ccccc2oc1=O
inactive: NCI-H522 > 100 µM | 786-0 > 100 µM | NCI-H23 > 100 µM | T47D > 100 µM | HCC 2998 > 100 µM | COLO 205 > 100 µM | MDA-MB-231 > 100 µM | SW-620 > 100 µM | SF-295 > 100 µM | PC-3 > 100 µM | KM12 > 100 µM | HL-60 > 100 µM | RPMI-8226 > 100 µM | NCI-H226 > 100 µM | DU-145 > 100 µM | M14 > 100 µM | HOP-92 > 100 µM | SK-MEL-28 > 100 µM | OVCAR-4 > 100 µM | SR > 100 µM
